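Cultured in 96-well plates, cells were exposed to test compound for 48 hours across five concentrations. Abbreviation: GI50, concentration required for 50% inhibition of growth.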 Active and inactive are the calls of the source. No stated cut-off is given here; in the data, active = GI50 up to about 1.1 µM and inactive = higher.
How the values were obtained:
Assay in all cases: NCI anticancer screen, dose series, 48 h
A549 = test system: A549
CAKI-1 = test system: CAKI-1
CCRF-CEM = test system: CCRF-CEM
HL-60 = test system: HL-60
NCI-H226 = test system: NCI-H226
NCI-H460 = test system: NCI-H460
OVCAR-3 = test system: OVCAR-3
RPMI-8226 = test system: RPMI-8226
SK-MEL-28 = test system: SK-MEL-28
SK-OV-3 = test system: SK-OV-3
SNB-19 = test system: SNB-19
TK-10 = test system: TK-10
UO-31 = test system: UO-31
SR = test system: SR

Measured: GI50

CCNc1c(C(=O)N(CC)CC)c(=O)[nH]c2ncccc12
inactive: A549 > 100 µM | CAKI-1 > 100 µM | CCRF-CEM > 100 µM | HL-60 > 100 µM | NCI-H226 > 100 µM | NCI-H460 > 100 µM | OVCAR-3 > 100 µM | RPMI-8226 > 100 µM | SK-MEL-28 > 100 µM | SK-OV-3 > 100 µM | SNB-19 > 100 µM | TK-10 > 100 µM | UO-31 > 100 µM

O=c1c2cc(Cl)ccc2sc2cccc(Cl)c12
inactive: A549 > 100 µM | CAKI-1 > 100 µM | CCRF-CEM > 100 µM | HL-60 > 100 µM | NCI-H226 > 100 µM | NCI-H460 > 100 µM | OVCAR-3 > 100 µM | RPMI-8226 > 100 µM | SK-MEL-28 > 100 µM | SNB-19 > 100 µM | SR > 100 µM | TK-10 > 100 µM | UO-31 > 100 µM

COC(=O)CC(C(C(=O)OC)C(=O)OC)N1C(=O)OCC1c1ccccc1 (stereo not given)
inactive: A549 > 100 µM | CAKI-1 > 100 µM | CCRF-CEM > 100 µM | HL-60 > 100 µM | NCI-H226 > 100 µM | NCI-H460 > 100 µM | OVCAR-3 > 100 µM | RPMI-8226 58.6 µM | SK-MEL-28 > 100 µM | SK-OV-3 > 100 µM | SNB-19 > 100 µM | TK-10 > 100 µM | UO-31 > 100 µM

O=c1nc(NC2CCCCO2)ccn1CCO (stereo not given)
inactive: A549 > 100 µM | CAKI-1 > 100 µM | CCRF-CEM > 100 µM | HL-60 > 100 µM | NCI-H226 > 100 µM | NCI-H460 > 100 µM | OVCAR-3 > 100 µM | RPMI-8226 > 100 µM | SK-MEL-28 > 100 µM | SK-OV-3 > 100 µM | SR > 100 µM | TK-10 > 100 µM | UO-31 > 100 µM

COc1ccc(/C=C(\C(C)=O)C(=O)Nc2ccccc2)cc1
inactive: A549 > 100 µM | CAKI-1 > 100 µM | CCRF-CEM > 100 µM | HL-60 > 100 µM | NCI-H226 > 100 µM | NCI-H460 > 100 µM | OVCAR-3 > 100 µM | RPMI-8226 > 100 µM | SK-MEL-28 > 100 µM | SK-OV-3 > 100 µM | SNB-19 > 100 µM | SR > 100 µM | TK-10 > 100 µM | UO-31 > 100 µM

COc1ccc(NC(=O)C(=O)c2c(O)c3ccc(O)cc3oc2=O)c([N+](=O)[O-])c1
inactive: A549 > 100 µM | CAKI-1 > 100 µM | CCRF-CEM > 100 µM | HL-60 > 100 µM | NCI-H226 > 100 µM | NCI-H460 > 100 µM | OVCAR-3 > 100 µM | SK-MEL-28 > 100 µM | SK-OV-3 > 100 µM | SNB-19 > 100 µM | TK-10 > 100 µM | UO-31 > 100 µM

N#Cc1ccccc1NC(=O)/C(=N\Nc1ccc([N+](=O)[O-])cc1)C1C(=O)NC(=O)NC1=O
inactive: A549 > 100 µM | CAKI-1 31.4 µM | CCRF-CEM > 100 µM | HL-60 > 100 µM | NCI-H460 > 100 µM | OVCAR-3 > 100 µM | RPMI-8226 > 100 µM | SK-MEL-28 > 100 µM | SK-OV-3 > 100 µM | SNB-19 > 100 µM | TK-10 > 100 µM | UO-31 62.8 µM

O=C(Nc1c(Cl)cc([N+](=O)[O-])cc1Cl)C(=O)C(C(=O)c1ccncc1)C1OC(=O)c2ccccc21 (stereo not given)
inactive: A549 > 100 µM | CAKI-1 > 100 µM | CCRF-CEM > 100 µM | HL-60 > 100 µM | NCI-H226 > 100 µM | NCI-H460 > 100 µM | OVCAR-3 > 100 µM | RPMI-8226 > 100 µM | SK-MEL-28 > 100 µM | SK-OV-3 > 100 µM | SNB-19 > 100 µM | SR > 100 µM | TK-10 > 100 µM | UO-31 > 100 µM

Cc1cc2c(cc1C)[n+]([O-])c(C(=O)CC(=O)C(=O)Nc1ccccc1C(C)C)c(C)[n+]2[O-]
inactive: A549 > 100 µM | CAKI-1 > 100 µM | CCRF-CEM > 100 µM | HL-60 > 100 µM | NCI-H226 > 100 µM | NCI-H460 > 100 µM | OVCAR-3 > 100 µM | RPMI-8226 > 100 µM | SK-MEL-28 > 100 µM | SK-OV-3 > 100 µM | SNB-19 > 100 µM | SR > 100 µM | TK-10 25.5 µM | UO-31 > 100 µM

COC(=O)c1ccccc1N(C(=O)c1ccccc1)c1ccccc1C
inactive: A549 61.9 µM | CAKI-1 34.4 µM | CCRF-CEM 27.3 µM | HL-60 19.5 µM | NCI-H226 74.3 µM | NCI-H460 29.8 µM | OVCAR-3 34.6 µM | SK-MEL-28 > 100 µM | SK-OV-3 24.3 µM | SNB-19 > 100 µM | SR 28.2 µM | TK-10 41.6 µM | UO-31 24.8 µM

CCOC(=O)Nc1ccc(S(=O)(=O)OC)cc1.CCOC(=O)Nc1ccc(S(=O)(=O)OC)cc1.NNC(=O)c1ccncc1
inactive: A549 > 50 µM | CAKI-1 > 50 µM | CCRF-CEM 9.08 µM | HL-60 > 50 µM | NCI-H226 > 50 µM | NCI-H460 > 50 µM | OVCAR-3 > 50 µM | RPMI-8226 14.6 µM | SK-MEL-28 > 50 µM | SK-OV-3 > 50 µM | SNB-19 > 50 µM | TK-10 > 50 µM | UO-31 > 50 µM

CCn1c(C)nn2c(=O)c3ccccc3nc2c1=O
inactive: A549 > 100 µM | CAKI-1 > 100 µM | CCRF-CEM > 100 µM | HL-60 > 100 µM | NCI-H460 > 100 µM | OVCAR-3 > 100 µM | RPMI-8226 > 100 µM | SK-MEL-28 > 100 µM | SK-OV-3 > 100 µM | TK-10 > 100 µM

CC1(C(=O)Nc2ccc3cc4ccccc4cc3c2)CC2(C)CC(C)(C1)C(O)NC2=O (stereo not given)
inactive: A549 98.4 µM | CAKI-1 > 100 µM | CCRF-CEM 34.4 µM | HL-60 20.9 µM | NCI-H226 53.1 µM | NCI-H460 56 µM | OVCAR-3 70 µM | RPMI-8226 61.1 µM | SK-MEL-28 > 100 µM | SK-OV-3 > 100 µM | SR 23.6 µM | TK-10 63 µM | UO-31 > 100 µM

CN(C)c1ccc(C2CC(=O)C(C#N)=C(c3ccccc3)NN2C)cc1 (stereo not given)
inactive: A549 8.04 µM | CAKI-1 9.82 µM | HL-60 3.13 µM | NCI-H226 37.4 µM | NCI-H460 5.52 µM | RPMI-8226 13.9 µM | SK-MEL-28 > 100 µM | SK-OV-3 12 µM | SNB-19 12.1 µM | SR 14.1 µM | TK-10 > 100 µM

CC1=NN(c2ccccc2)C(=O)C1/N=N/c1ccc(Br)cc1C (stereo not given)
inactive: A549 40.5 µM | CAKI-1 46.2 µM | CCRF-CEM > 100 µM | HL-60 > 100 µM | NCI-H226 35.9 µM | NCI-H460 > 100 µM | OVCAR-3 > 100 µM | RPMI-8226 > 100 µM | SK-MEL-28 > 100 µM | SK-OV-3 32.9 µM | SNB-19 85.9 µM | TK-10 39.4 µM

— ChEMBL document CHEMBL1201862, “PubChem BioAssay data set” (2004)
